From publication PMC11557217, “Insights into the Functioning of the D-amino Acid Transaminase from Haliscomenobacter Hydrossis via a Structural and Spectral Analysis of its Complex with 3-Aminooxypropionic Acid” (Acta Naturae, 2024)

Legend:
[1] = target: T1, TA_Halhy (Haliscomenobacter hydrossis, UniProt F4KWH0); assay: X-ray crystal structure ([…] Å, co-crystallization); UV/Vis spectra of oxime formation; format: binding; conditions: covalent: forms oxime with the PLP cofactor; crystals at pH 5.5, 12 mM compound, 6 mM PLP; spectra at pH 8.0, 25 °C; carboxyl group in O-pocket; reversible
T1 construct: gene Halhy_2446; PLP holoenzyme; homodimer
T1 sequence (F4KWH0 1-281): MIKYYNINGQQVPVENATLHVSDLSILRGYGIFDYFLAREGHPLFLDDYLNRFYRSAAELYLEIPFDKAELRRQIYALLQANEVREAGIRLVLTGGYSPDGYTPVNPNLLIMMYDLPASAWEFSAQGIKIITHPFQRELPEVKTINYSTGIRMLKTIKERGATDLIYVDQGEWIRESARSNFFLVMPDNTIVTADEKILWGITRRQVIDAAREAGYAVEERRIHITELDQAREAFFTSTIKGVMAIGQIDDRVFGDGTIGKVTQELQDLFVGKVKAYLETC

[2] = target: T1, TA_Halhy; assay: transamination, lactate dehydrogenase-coupled NADH assay; substrate inhibition curve; format: biochemical; conditions: 2.5 mM pyruvate, 30 μM PLP, 50 mM potassium phosphate, pH 8.0, 40 °C
[3] = target: T1, TA_Halhy; assay: UV/Vis spectra and activity restoration of the apoenzyme on adding PLP; format: biochemical; conditions: 50 mM potassium phosphate, pH 8.0; covalent internal aldimine in the holoenzyme
[4] = target: T1, TA_Halhy; assay: transamination; substrate inhibition curve; format: biochemical; conditions: 40 mM D-alanine, 30 μM PLP, 50 mM potassium phosphate, pH 8.0, 40 °C

NOCCC(=O)O [3-aminooxypropionic acid, 3-(aminooxy)propanoic acid]
X-ray crystal structure (1.70 Å, co-crystallization); UV/Vis spectra of oxime fo [1]: the structure of the TA_Halhy complex has been solved and refined

N[C@H](CCC(=O)O)C(=O)O [D-glutamic acid]
transamination, lactate dehydrogenase-coupled NADH assay; substrate inhibition c [2]: TA_Halhy is inhibited by D-glutamic acid and α-ketoglutarate at substrate concentrations as low as millimolars

Cc1ncc(COP(=O)(O)O)c(C=O)c1O [pyridoxal 5'-phosphate]
UV/Vis spectra and activity restoration of the apoenzyme on adding PLP [3]: Holoenzyme was formed, and TA_Halhy activity was fully restored, after PLP was added

O=C(O)CCC(=O)C(=O)O [α-ketoglutarate]
transamination; substrate inhibition curve [4]: TA_Halhy is inhibited by D-glutamic acid and α-ketoglutarate at substrate concentrations as low as millimolars
